The values below are quoted from earlier work in patent US20190382321A1, “ACID-RESISTANT UREASE INHIBITOR ADDUCT-[…] COMPOSITIONS” (Koch Agronomic Services, LLC, priority 2017, published 2019).

For the data set the following is noted: blend of NBPT-containing urea and one or more acidic fertilizers.

As to `CCCCNP(N)(N)=S` [NBPT, N-(n-butyl) thiophosphoric triamide], the “time to almost complete decomposition after blending” value is listed as 1-2 weeks.
